Data reported in US10716788B2, “Methods for treating MS using pyrimidine and pyridine compounds with BTK inhibitory activity” (Merck Patent GmbH, priority 2015, dated 2020).

Assays:
[1] = test system: PLP139-151 induced EAE in female SJL mice; assay: PLP139-151 induced EAE in SJL mice (relapsing remitting mouse model of MS); type: in vivo; conditions: for relapse activity / relapses: FIG. 2 / FIG. 10
RA models = conditions: 3 mg/kg PO; cited from earlier work
[2] = prophylactic treatment from Day 0 post-induction, 0.3, 1.0, 3 mg/kg PO QD, FIG. 1 / FIG. 9
[3] = prophylactic treatment from Day 0 post-induction, 0.3, 1.0, 3 mg/kg PO QD
[4] = therapeutic dosing from Day 9 post-induction, 1.0, 3, 10 mg/kg PO QD, FIG. 15

SMILES	disease onset ([1]; prophylactic treatment from Day 0 post-induction, 0.3, 1.0, 3 mg/kg PO QD, FIG. 1)	disease severity (clinical score) [1, 2]	relapse activity / relapses [1, 3]	disease severity (clinical score) ([1]; therapeutic treatment, start at remission, 1, 3, 10 mg/kg PO QD, FIG. 3)	relapse activity ([1]; therapeutic treatment, start at remission, 1, 3, 10 mg/kg PO QD, FIG. 4)	number of relapses ([1]; dosing from Day 7 post-induction (before onset of EAE), 1.0 and 10 mg/kg PO QD, FIG. 21)	incidence of disease ([1]; prophylactic treatment from Day 0 post-induction, 0.3, 1.0, 3 mg/kg PO QD, FIG. 10)	disease severity (clinical score) ([1]; semi-therapeutic dosing from Day 7 post-induction (before onset of EAE), 1.0 and 10 mg/kg PO QD, FIG. 20)	disease severity (clinical score) ([1]; therapeutic dosing from Day 9 post-induction, 1.0, 3, 10 mg/kg PO QD, FIG. 14)	relapses [1, 4]	time to first relapse [1, 4]	disease severity (clinical score) ([1]; therapeutic dosing from Day 17 post-induction, 1.0 and 10 mg/kg PO QD, FIG. 18)	number of relapses ([1]; therapeutic dosing from Day 17 post-induction, 1.0 and 10 mg/kg PO QD, FIG. 19)	efficacy on RA models (RA models)
C=CC(=O)N1CCC(CNc2ncnc(N)c2-c2ccc(Oc3ccccc3)cc2)CC1 [Compound (1), 1-(4-(((6-amino-5-(4-phenoxyphenyl)pyrimidin-4-yl)amino)methyl)piperidin-1-yl)prop-2-en-1-one]	delayed onset	reduced disease severity	reduced relapse activity	reduced disease severity	reduced relapse activity	–	–	–	–	–	–	–	–	–
C=CC(=O)N1CCC(F)(CNc2ncnc(N)c2-c2ccc(Oc3ccccc3)cc2)CC1 [Compound (2), 1-(4-(((6-amino-5-(4-phenoxyphenyl)pyrimidin-4-yl)amino)methyl)-4-fluoropiperidin-1-yl)prop-2-en-1-one]	–	significantly decreases disease severity	decreased	–	–	reduced the number of relapses	decreased incidence of disease	reduced disease severity	reduced disease severity	decreased relapses	prolonged time to first relapse	reduced disease severity	reduced the number of relapses	efficacious
